# Activity calls are given as the source filed them. The rule behind the calls is not given here.
# Legend:
# [1] = tested on: Bacteria; assay: Inhibition of TEM-1 activity (unknown origin) at 10 ug/ml using nitrocefin as substrate preincubated for 30 mins followed by 485 nm light irradiation and substrate addition by UV-Vis spectrometer assay; conditions: dose 10.0 µg/ml
# [2] = tested on: Escherichia coli; assay: Synergistic antibacterial activity against cefoperazone sodium resistant Escherichia coli assessed as decrease in CFS MIC at 20 ug/ml incubated for 8 hrs (reference value: 285 ug/ml); type: functional; conditions: dose 20 µg/ml
# [3] = tested on: Escherichia coli; assay: Antibiofilm activity against drug susceptible Escherichia coli incubated for 48 hrs in presence of CFS by crystal violet staining based microplate reader assay; type: functional, organism-based
# [4] = tested on: Escherichia coli; assay: Bactericidal activity against drug resistant Escherichia coli in presence of CFS by plate count method; type: functional
# [5] = tested on: Escherichia coli; assay: Bactericidal activity against drug resistant Escherichia coli after repeated drug exposure for three generation and measured on fourth generation in presence of CFS by plate count method; type: functional
# [6] = tested on: Bacteria; assay: Inhibition of TEM-1 activity (unknown origin); conditions: concentration not given here
# [7] = tested on: Escherichia coli; assay: Antibacterial activity against drug susceptible Escherichia coli; type: functional
# [8] = tested on: Escherichia coli; assay: Antibacterial activity against drug resistant Escherichia coli; type: functional
# [9] = Photoactivation of the compound assessed as photo conversion ratio by measuring SU release under 5 mins of blue light irradiation by HPLC analysis
# [10] = Drug uptake in Escherichia coli assessed as increase in red fluorescence at 1 mg/ml incubated for 15 mins under dark condition by acridine orange staining based confocal laser scanning microscopy analysis; type: ADME; conditions: 0.25 h
# [11] = Drug uptake in Escherichia coli assessed as increase in red fluorescence at 1 mg/ml after 1 mins under 405 nm light irradiation by acridine orange staining based confocal laser scanning microscopy analysis; type: ADME
# [12] = Photoactivation of the compound assessed as encapsulated SU release under 405 nm light irradiation by HPLC analysis
# [13] = tested on: HeLa; assay: Cytotoxicity against human HeLa cells assessed as viable cells after 200 ug/ml incubated for 24 hrs by MTT assay; type: functional; conditions: read-out: Activity
# [14] = tested on: Bacteria; assay: Inhibition of TEM-1 activity (unknown origin) at 65 ug/ml using nitrocefin as substrate preincubated for 30 mins followed by 485 nm light irradiation and substrate addition by UV-Vis spectrometer assay; conditions: dose 65.0 µg/ml
# [15] = tested on: Bacteria; assay: Inhibition of TEM-1 activity (unknown origin) at 65 ug/ml using nitrocefin as substrate under absence of light irradiation by UV-Vis spectrometer assay; conditions: dose 65.0 µg/ml
# [16] = tested on: Bacteria; assay: Inhibition of TEM-1 activity (unknown origin) at 65 ug/ml using nitrocefin as substrate preincubated for 30 mins followed by 485 nm light irradiation and substrate addition measured after 2 mins by UV-Vis spectrometer assay; conditions: dose 65.0 µg/ml, time 32.0 min
# [17] = tested on: Bacteria; assay: Inhibition of TEM-1 activity (unknown origin) at 65 ug/ml using nitrocefin as substrate preincubated for 30 mins followed by 485 nm light irradiation and substrate addition measured after 5 mins by UV-Vis spectrometer assay; conditions: dose 65.0 µg/ml, time 35.0 min
# [18] = tested on: Escherichia coli; assay: Synergistic antibacterial activity against cefoperazone sodium resistant Escherichia coli assessed as decrease in CFS MIC at 132 ug/ml preincubated for 20 mins prior to 405 nm LED laser irradiation for 5 mins and cocultured for 6 hrs under static condition and measured after 24 hrs by plate count method (reference value: 285 ug/ml); type: functional; conditions: light or radiation study, 30.42 h, dose 132 µg/ml, time 1825 min
# [19] = tested on: Escherichia coli; assay: Synergistic antibacterial activity against cefoperazone sodium resistant Escherichia coli assessed as elimination of resistant bacteria incubated for 8 hrs in presence of CFS; type: functional
# [20] = tested on: Escherichia coli; assay: (§1) Synergistic antibacterial activity against cefoperazone sodium resistant Escherichia coli assessed as elimination of resistant bacteria in presence of CFS preincubated for 20 mins prior to 405 nm LED laser irradiation for 5 mins and cocultured for 6 hrs under static condition and measured after 24 hrs by plate count method; type: functional; conditions: time 1825 min; 30.42 h
# [21] = tested on: Escherichia coli; assay: as §1, with “CFS” for “cefoperazone sodium”, “increase in bacterial killing” for “elimination of resistant bacteria”; type: functional, organism-based; conditions: time 1825.0 min
# [22] = tested on: Escherichia coli; assay: Synergistic antibacterial activity against CFS susceptible Escherichia coli assessed as increase in bacterial killing incubated under dark condition in presence of CFS; type: functional, organism-based
# [23] = tested on: Escherichia coli; assay: Synergistic bactericidal activity against CFS susceptible Escherichia coli incubated under dark condition in presence of CFS by AO/EB staining based confocal laser scanning microscopy assay; type: functional, organism-based
# [24] = tested on: Escherichia coli; assay: Synergistic bactericidal activity against CFS resistant Escherichia coli incubated under dark condition in presence of CFS by AO/EB staining based confocal laser scanning microscopy assay; type: functional, organism-based
# [25] = tested on: Escherichia coli; assay: Synergistic bactericidal activity against CFS susceptible Escherichia coli incubated under light irradiation in presence of CFS by AO/EB staining based confocal laser scanning microscopy assay; type: functional, organism-based
# [26] = tested on: Escherichia coli; assay: Synergistic bactericidal activity against CFS resistant Escherichia coli incubated under light irradiation in presence of CFS by AO/EB staining based confocal laser scanning microscopy assay; type: functional, organism-based
# [27] = tested on: Escherichia coli; assay: Synergistic antibacterial activity against Escherichia coli incubated under dark condition in presence of AMP; type: functional, organism-based
# [28] = tested on: Escherichia coli; assay: Synergistic antibacterial activity against Escherichia coli incubated under light irradiation in presence of AMP; type: functional, organism-based
# [29] = tested on: Escherichia coli; assay: Synergistic antibacterial activity against Escherichia coli assessed as appearance of shrunken cell wall under light irradiation in presence of CFS; type: functional, organism-based
# [30] = tested on: Escherichia coli; assay: Synergistic antibacterial activity against Escherichia coli assessed as appearance of incomplete cell wall under light irradiation in presence of CFS; type: functional, organism-based
# [31] = tested on: Escherichia coli; assay: Antibiofilm activity against Escherichia coli assessed as reduction in bacterial cell density after 48 hrs under light irradiation in presence of CFS by FITC-ConA staining based confocal laser scanning microscopy analysis; type: functional, organism-based
# [32] = tested on: Escherichia coli; assay: Antibiofilm activity against Escherichia coli assessed as reduction in exo-polysaccharide content after 48 hrs under light irradiation in presence of CFS by FITC-ConA staining based confocal laser scanning microscopy analysis; type: functional, organism-based
# [33] = tested on: Escherichia coli; assay: Antibiofilm activity against drug resistant Escherichia coli incubated for 48 hrs in presence of CFS by crystal violet staining based microplate reader assay; type: functional
# [34] = tested on: Escherichia coli; assay: Antibiofilm activity against drug resistant Escherichia coli incubated for 48 hrs under light irradiation in presence of CFS by crystal violet staining based microplate reader assay; type: functional
# [35] = tested on: Escherichia coli; assay: Bactericidal activity against drug resistant Escherichia coli after repeated drug exposure for multiple generation under light irradiation in presence of CFS by plate count method; type: functional, organism-based
# [36] = tested on: Escherichia coli; assay: Downregulation of beta-lactamase expression in Escherichia coli measured after eighth generation in presence of CFS under light irradiation condition by ELISA; type: functional
# [37] = Solubility of compound in water; type: physicochemical
# [38] = Stability of compound under ambient light condition measured after 72 hrs; type: physicochemical
# [39] = tested on: Escherichia coli; assay: Antibacterial activity against cefoperazone sodium susceptible Escherichia coli incubated for 8 hrs; type: functional
# [40] = tested on: Escherichia coli; assay: Antibacterial activity against cefoperazone sodium resistant Escherichia coli incubated for 8 hrs; type: functional
# [41] = tested on: Escherichia coli; assay: Antibacterial activity against cefoperazone sodium resistant Escherichia coli assessed as elimination of resistant bacteria incubated for 8 hrs; type: functional
# [42] = tested on: Escherichia coli; assay: Bactericidal activity against CFS susceptible Escherichia coli incubated under dark condition by AO/EB staining based confocal laser scanning microscopy assay; type: functional, organism-based
# [43] = tested on: Escherichia coli; assay: Bactericidal activity against CFS susceptible Escherichia coli incubated under light irradiation by AO/EB staining based confocal laser scanning microscopy assay; type: functional, organism-based
# [44] = tested on: Escherichia coli; assay: Bactericidal activity against CFS resistant Escherichia coli incubated under dark condition by AO/EB staining based confocal laser scanning microscopy assay; type: functional, organism-based
# [45] = tested on: Escherichia coli; assay: Antibacterial activity against CFS resistant Escherichia coli assessed as change in bacterial cell wall by SEM analysis; type: functional, organism-based
# [46] = tested on: Escherichia coli; assay: Antibiofilm activity against drug susceptible Escherichia coli incubated for 48 hrs by crystal violet staining based microplate reader assay; type: functional, organism-based
# [47] = tested on: Escherichia coli; assay: Antibiofilm activity against drug resistant Escherichia coli incubated for 48 hrs by crystal violet staining based microplate reader assay; type: functional
structure (smiles),measurement,setting,value
CC1(C)[C@H](C(=O)O)N2C(=O)C[C@H]2S1(=O)=O [SULBACTAM],inhibition,[1],93.3%
same,MIC,[2],14 µg/mL
same,Activity,[3],Active
same,Activity,[4],98%
same,Activity,[5],45%
CC1(C)C(C(=O)OCCCOC(=O)Cc2ccccc2[N+](=O)[O-])N2C(=O)CC2S1(=O)=O (stereo not given),inhibition,[6],10.6%
CC1(C)S[C@@H]2[C@H](NC(=O)[C@H](N)c3ccccc3)C(=O)N2[C@H]1C(=O)O [AMPICILLIN],MIC,[7],8 µg/mL
same,MIC,[8],150 µg/mL
CC1(C)C(C(=O)OCCc2ccccc2[N+](=O)[O-])N2C(=O)CC2S1(=O)=O (stereo not given),Activity,[9],25%
same,inhibition,[6],9.03%
CCN(CC)c1ccc2c(-c3ccccc3COCC(C)c3cc(-c4ccc(OCCOCCOCCOCCn5nncc5CCCO[C@H]5O[C@H](CO)[C@H](O)[C@H](O)[C@H]5O)cc4)ccc3[N+](=O)[O-])c3ccc(=[N+](CC)CC)cc-3oc2c1.Cl (stereo not given in full),Drug uptake,[10],Active
same,Drug uptake,[11],Active
CC(COC(=O)C1N2C(=O)CC2S(=O)(=O)C1(C)C)c1cc(-c2ccc(OCCOCCOCCOCCn3nncc3CCCO[C@H]3O[C@H](CO)[C@H](O)[C@H](O)[C@H]3O)cc2)ccc1[N+](=O)[O-] (stereo not given in full),Activity,[9],62%
same,Activity,[12],~ 60%
same,viability at 200 µg/mL,[13],> 90%
same,inhibition,[14],Active
same,inhibition,[15],7.26%
same,inhibition,[16],84.7%
same,inhibition,[17],89.1%
same,MIC,[18],14 µg/mL
same,Activity,[19],54.7%
same,Activity,[20],96.01%
same,Activity,[21],Active
same,Activity,[22],Active
same,Activity,[23],inactive
same,Activity,[24],inactive
same,Activity,[25],Active
same,Activity,[26],Active
same,Activity,[27],Active
same,Activity,[28],Active
same,Activity,[29],Active
same,Activity,[30],Active
same,Activity,[31],Active
same,Activity,[32],Active
same,Activity,[3],Active
same,Activity,[33],~50%
same,Activity,[34],~90%
same,Activity,[35],Active
same,Activity,[36],Active
same,solubility,[37],≤ 1000 µM
same,Stability,[38],Stable
CCN1CCN(C(=O)N[C@@H](C(=O)N[C@@H]2C(=O)N3C(C(=O)[O-])=C(CSc4nnnn4C)CS[C@H]23)c2ccc(O)cc2)C(=O)C1=O.[Na+] [CEFOPERAZONE SODIUM],MIC,[39],14 µg/mL
same,MIC,[40],285 µg/mL
same,Activity,[41],54.2%
same,Activity,[42],Active
same,Activity,[43],Active
same,Activity,[44],inactive
same,Activity,[45],inactive
same,Activity,[46],Active
same,Activity,[47],~50%

# From ChEMBL document CHEMBL6127134, “Light-Activable Inhibitor Overcomes Antimicrobial Resistance and Regulates Antibacterial Activity” (J Med Chem, 2024)
